Experimental data published in ChEMBL document CHEMBL1128775, “Specific affinity labeling of opioid receptors in rat brain by S-activated sulfhydryldihydromorphine analogs” (Bioorg Med Chem Lett, 1995).

Assays:
Type in all cases: tissue-based
[1] = molecular target: T1, Mu-type opioid receptor (Rattus norvegicus, UniProt P33535); experiment: Compound was evaluated for its binding affinity to mu opioid receptors in rat brain
[2] = molecular target: T1, Mu-type opioid receptor; experiment: Ability to displace [3H][D-Ala2,MePhe4,Gly-ol5]enkephalin ([3H]DAGO) from mu opioid receptors in rat brain
[3] = molecular target: T2, Delta-type opioid receptor (Rattus norvegicus, UniProt P33533); experiment: Compound was evaluated for its binding affinity to Opioid receptor delta 1 in rat brain
[4] = molecular target: T2, Delta-type opioid receptor; experiment: Ability to displace [3H][D-Ser2,Leu5]enkephalin-Thr ([3H]DSLET) from Opioid receptor delta 1 in rat brain

T2 sequence (P33533 whole entry): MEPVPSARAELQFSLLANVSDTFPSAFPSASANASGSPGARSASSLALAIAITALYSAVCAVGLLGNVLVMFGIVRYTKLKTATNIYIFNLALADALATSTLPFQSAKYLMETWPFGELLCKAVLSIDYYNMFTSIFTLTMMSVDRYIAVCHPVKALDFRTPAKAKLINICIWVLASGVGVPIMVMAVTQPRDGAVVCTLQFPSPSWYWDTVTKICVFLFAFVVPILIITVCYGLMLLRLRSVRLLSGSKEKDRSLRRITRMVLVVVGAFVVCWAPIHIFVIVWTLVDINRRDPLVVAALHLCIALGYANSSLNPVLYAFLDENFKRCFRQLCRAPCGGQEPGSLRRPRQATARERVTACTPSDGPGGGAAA
T1 sequence (P33535 whole entry): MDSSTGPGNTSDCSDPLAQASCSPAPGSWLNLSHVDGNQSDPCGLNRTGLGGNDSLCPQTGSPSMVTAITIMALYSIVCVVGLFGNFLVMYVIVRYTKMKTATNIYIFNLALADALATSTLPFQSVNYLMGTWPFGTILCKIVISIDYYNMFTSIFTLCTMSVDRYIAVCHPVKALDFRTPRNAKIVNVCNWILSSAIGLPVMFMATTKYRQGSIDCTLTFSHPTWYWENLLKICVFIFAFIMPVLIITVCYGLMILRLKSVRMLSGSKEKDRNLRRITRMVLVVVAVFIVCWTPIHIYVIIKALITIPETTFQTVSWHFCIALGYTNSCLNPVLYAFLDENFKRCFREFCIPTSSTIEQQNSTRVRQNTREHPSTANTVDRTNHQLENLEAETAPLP

Structure (SMILES) | EC50 [1] [nM] | IC50 [2] [nM] | EC50 [3] [nM] | IC50 [4] [nM]
CN1CC[C@]23c4c5ccc(O)c4O[C@H]2[C@@H](O)C[C@H](SSc2ccc([N+](=O)[O-])cn2)C3[C@H]1C5 (stereo partly drawn) | 1700 | 58.1 | 1200 | 67.9
CN1CC[C@]23c4c5ccc(O)c4O[C@H]2[C@H](SSc2ccc([N+](=O)[O-])cn2)CCC3C1C5 (stereo partly drawn) | 58.1 | 31.1 | 402 | 206
